Experimental data from article PMC7472354, “Enhanced Antimicrobial Activity of N-Terminal Derivatives of a Novel Brevinin-1 Peptide from The Skin Secretion of Odorrana schmackeri” (Toxins, 2020).
Values after ≈ are worked out from the molar mass of the structure shown. Where two headings read alike, the source gives them in different places. Blank lines part the entries; values can stand above or below the compound they belong to. Where a SMILES comes first, the peptide text is derived from it. Bridges are numbered along the chain shown (N, C = ends).

Tests used:
[1] = tested on: Candida albicans (NCPF 1467); format: cell-based; details: for MBC: NCPF 1467, 18 h; for MIC: NCPF 1467, 24 h
Procedure: (§1) The minimal inhibitory concentrations (MICs) and minimum bactericidal concentrations (MBCs) were evaluated to determine the antimicrobial activity of synthetic peptides. The microorganisms employed in the study are two kinds of Gram-negative bacteria, Escherichia coli (NCTC 10418) and Pseudomonas aeruginosa (ATCC 27853), three kinds of Gram-positive bacteria, Staphylococcus aureus (NCTC 10788), Methicillin-resistant Staphylococcus aureus (MRSA, ATCC 12493) and Enterococcus faecalis (NCTC 12697) and a yeast, Candida albicans (NCPF 1467), as indicated previously. […] The sterilised broth medium was used as the positive control and the microorganism cultured in the medium only was treated as the negative control. […] The MBC results were defined as the lowest bactericidal concentrations of peptide. The antimicrobial activity of peptides was tested by monitoring the absorbance at 550 nm using an ELISA plate reader (Biolise BioTek EL808, Winooski, VT, USA).

[2] = tested on: Staphylococcus aureus (NCTC 10788); format: cell-based; details: for MBC: NCTC 10788, 18 h; for MIC: NCTC 10788, 24 h
Procedure: as §1

[3] = tested on: Methicillin-resistant Staphylococcus aureus (MRSA, ATCC 12493); format: cell-based; details: for MBC: ATCC 12493, 18 h; for MIC: ATCC 12493, 24 h
Procedure: as §1

[4] = tested on: Escherichia coli (NCTC 10418); format: cell-based; details: for MBC: NCTC 10418, 18 h; for MIC: NCTC 10418, 24 h
Procedure: as §1

[5] = tested on: Enterococcus faecalis (NCTC 12697); format: cell-based; details: for MBC: NCTC 12697, 18 h; for MIC: NCTC 12697, 24 h
Procedure: as §1

[6] = tested on: Pseudomonas aeruginosa (ATCC 27853); format: cell-based; details: for MBC: ATCC 27853, 18 h; for MIC: ATCC 27853, 24 h
Procedure: as §1

[7] = tested on: S. aureus (NCTC 10788) biofilm; format: cell-based, Staphylococcus aureus
Procedure: (§2) The anti-biofilm effects of all synthetic peptides were evaluated, which was described in our previous study. The organisms, including S. aureus (NCTC 10788), E. coli (NCTC 10418), MRSA (ATCC 12493), E. faecalis (NCTC 12697) and P. aeruginosa (ATCC 27853), were investigated in this study. Gram-positive bacteria were cultured in the TSB broth and Gram-negative bacteria were cultured in the LB broth. The anti-biofilm effects were determined based on the MBIC and MBEC of all the peptides. For the determination of MBIC, 5 × 10^5 CFU/mL bacterial cultures were incubated with the peptides concentrations (ranging from 1 µM to 512 µM) for 24 h. The sterilised medium and bacterial suspension without any treatment were used as the negative controls and positive controls, respectively. After incubation, wells were rinsed, fixed, stained, washed and dissolved with phosphate buffer saline (PBS), methanol (90%, v/v), crystal violet (0.1%, w/v), sterile deionised water and acetic acid (30%, v/v), respectively. The absorbance of dissolved stain was measured at a 595 nm using a Synergy HT plate reader (Biotech, Minneapolis, MN, USA).
(§3) For the MBEC assay, the peptide concentrations were prepared as above. The bacteria were cultured in the 96 well plate for 24–48 h, which allowed the formation of mature biofilm in the plate. Then, the bacterial culture was removed from the plate. The biofilm was further washed to remove the planktonic bacteria using PBS. Then, the fresh broth that contained different peptide concentrations was added in the plate for incubation of 24 h at 37 °C. After incubation, the plate was stained by crystal violet as mentioned above. The definition of MBIC can be given when compared to the negative control group (≥90%, MBIC90; ≥50%, MBIC50). The definition of the MBEC can be given when compared to the negative control group (≥90%, MBEC90; ≥50%, MBEC50).

[8] = tested on: MRSA (ATCC 12493) biofilm; format: cell-based, Staphylococcus aureus
Procedure: as §2, §3

P. aeruginosa = format: cell-based, Pseudomonas aeruginosa; details: 24 h
Procedure: (§4) The minimal inhibitory concentrations (MICs) and minimum bactericidal concentrations (MBCs) were evaluated to determine the antimicrobial activity of synthetic peptides. The microorganisms employed in the study are two kinds of Gram-negative bacteria, Escherichia coli (NCTC 10418) and Pseudomonas aeruginosa (ATCC 27853), three kinds of Gram-positive bacteria, Staphylococcus aureus (NCTC 10788), Methicillin-resistant Staphylococcus aureus (MRSA, ATCC 12493) and Enterococcus faecalis (NCTC 12697) and a yeast, Candida albicans (NCPF 1467), as indicated previously. For antimicrobial assays, 5 × 10^5 CFU/mL of bacterial suspensions were incubated with the concentrations of the peptides (ranging from 1 µM to 512 µM) for 24 h at 37 °C. The sterilised broth medium was used as the positive control and the microorganism cultured in the medium only was treated as the negative control. […] The MBC results were defined as the lowest bactericidal concentrations of peptide. The antimicrobial activity of peptides was tested by monitoring the absorbance at 550 nm using an ELISA plate reader (Biolise BioTek EL808, Winooski, VT, USA).
(§5) The activity of peptides in the different environmental conditions including different concentrations of NaCl (50, 100 and 150 mM) and MgCl2 (0.5, 1 and 2 mM), pH (6, 7 and 8), temperature (50 °C, 75 °C and 100 °C) and 10% fetal bovine serum (FBS) solution, was evaluated using the broth microdilution assay as described in the antimicrobial activity assay. For the stability test of peptides in the presence of salt, pH and serum, these conditions were adjusted in the fresh medium that was further used to dilute the bacteria suspension. The peptides were also dissolved in such broth and mixed with the bacteria suspension in the 96 well plate. For the thermal stability test, the peptides were dissolved in the water and incubated at different temperature for 15 min before dosing in the plate. The sterilised broth with corresponding conditions was used as the positive controls, and the bacteria suspension without any treatment was used as the negative controls.

[9] = tested on: E. faecalis (NCTC 12697) biofilm; format: cell-based, Enterococcus faecalis
Procedure: as §2, §3

MRSA = format: cell-based, Staphylococcus aureus; details: 24 h
Procedure: as §4, §5

S. aureus = format: cell-based, Staphylococcus aureus; details: 24 h
Procedure: as §4, §5

[10] = tested on: P. aeruginosa (ATCC 27853) biofilm; format: cell-based, Pseudomonas aeruginosa
Procedure: as §2, §3

C. albicans = format: cell-based, Candida albicans; details: 24 h
Procedure: as §4, §5

E. faecalis = format: cell-based, Enterococcus faecalis; details: 24 h
Procedure: as §4, §5

E. coli = format: cell-based, Escherichia coli; details: 24 h
Procedure: as §4, §5

[11] = tested on: E. coli (NCTC 10418) biofilm; format: cell-based, Escherichia coli
Procedure: as §2, §3

- MIC [1]: 8 µM (≈ 19.6 µg/mL)
- MIC [2]: 4 µM (≈ 9.81 µg/mL)
- MIC [3]: 32 µM (≈ 78.5 µg/mL)
- MIC [4]: 128 µM (≈ 314 µg/mL)
- MIC [5]: 8 µM (≈ 19.6 µg/mL)
- MIC [6]: 256 µM (≈ 628 µg/mL)
- MIC (P. aeruginosa; pH 6): 128 µM (≈ 314 µg/mL)
- MIC (P. aeruginosa; pH 7): 256 µM (≈ 628 µg/mL)
- MIC (P. aeruginosa; pH 8): 256 µM (≈ 628 µg/mL)
- MIC (MRSA; pH 6): 64 µM (≈ 157 µg/mL)
- MIC (MRSA; pH 7): 8 µM (≈ 19.6 µg/mL)
- MIC (MRSA; pH 8): 4 µM (≈ 9.81 µg/mL)
- MIC (S. aureus; pH 6): 8 µM (≈ 19.6 µg/mL)
- MIC (S. aureus; pH 7): 4 µM (≈ 9.81 µg/mL)
- MIC (S. aureus; pH 8): 4 µM (≈ 9.81 µg/mL)
- MIC (C. albicans; pH 6): 64 µM (≈ 157 µg/mL)
- MIC (C. albicans; pH 7): 16 µM (≈ 39.2 µg/mL)
- MIC (C. albicans; pH 8): 16 µM (≈ 39.2 µg/mL)
- MIC (E. faecalis; pH 6): 128 µM (≈ 314 µg/mL)
- MIC (E. faecalis; pH 7): 32 µM (≈ 78.5 µg/mL)
- MIC (E. faecalis; pH 8): 16 µM (≈ 39.2 µg/mL)
- MIC (E. coli; pH 6): 32 µM (≈ 78.5 µg/mL)
- MIC (E. coli; pH 7): 32 µM (≈ 78.5 µg/mL)
- MIC (E. coli; pH 8): 128 µM (≈ 314 µg/mL)
Compound: CC[C@H](C)[C@H](NC(=O)CNC(=O)[C@@H]1CCCN1C(=O)[C@H](CC(C)C)NC(=O)[C@@H](N)Cc1ccccc1)C(=O)N[C@@H](CC(C)C)C(=O)N[C@@H](CCCCN)C(=O)N[C@H](C(=O)N[C@@H](C)C(=O)N[C@@H](C)C(=O)N[C@@H](CC(N)=O)C(=O)N[C@H](C(=O)N[C@H](C(=O)N1CCC[C@H]1C(=O)NCC(=O)N[C@H](C(=O)N[C@H](C(=O)N[C@H]1CSSC[C@@H](C(=O)O)NC(=O)[C@H](CCCCN)NC(=O)[C@H](CCCCN)NC(=O)[C@H]([C@@H](C)O)NC(=O)[C@H]([C@@H](C)CC)NC(=O)[C@H](C)NC1=O)[C@@H](C)CC)C(C)C)C(C)C)C(C)C)C(C)C [Brevinin-1OS] (H-FLPGILKVAANVVPGVICAITKKC-OH; disulfide 18-24)
- MBC [1]: 64 µM (≈ 157 µg/mL)
- MBC [2]: 16 µM (≈ 39.2 µg/mL)
- MBC [3]: 32 µM (≈ 78.5 µg/mL)
- MBC [4]: > 512 µM
- MBC [5]: 16 µM (≈ 39.2 µg/mL)
- MBC [6]: > 512 µM
- MBEC50 [7]: 32 µM
- MBEC90 [7]: 64 µM
- MBIC50 ([7]; NCTC 10788, 24 h): 4 µM
- MBIC90 ([7]; NCTC 10788, 24 h): 4 µM
- MBEC50 [8]: 64 µM
- MBEC90 [8]: 256 µM
- MBIC50 ([8]; ATCC 12493, 24 h): 8 µM
- MBIC90 ([8]; ATCC 12493, 24 h): 32 µM
- MBEC50 [9]: 256 µM
- MBEC90 [9]: > 512 µM
- MBIC50 ([9]; NCTC 12697, 24 h): 32 µM
- MBIC90 ([9]; NCTC 12697, 24 h): 64 µM
- MBEC50 [10]: 512 µM
- MBEC90 [10]: 512 µM
- MBIC50 ([10]; ATCC 27853, 24 h): 256 µM
- MBIC90 ([10]; ATCC 27853, 24 h): 256 µM
- MBEC50 [11]: > 512 µM
- MBEC90 [11]: > 512 µM
- MBIC50 ([11]; NCTC 10418, 24 h): 128 µM
- MBIC90 ([11]; NCTC 10418, 24 h): 128 µM

- MIC [1]: > 512 µM
- MIC [2]: > 512 µM
- MIC [3]: > 512 µM
- MIC [4]: > 512 µM
- MIC [5]: > 512 µM
- MIC [6]: > 512 µM
Compound: CC[C@H](C)[C@H](NC(=O)[C@@H](NC(=O)CNC(=O)[C@@H]1CCCN1C(=O)[C@@H](NC(=O)[C@@H](NC(=O)[C@H](CC(N)=O)NC(=O)[C@H](C)NC(=O)[C@H](C)NC(=O)[C@@H](NC(=O)[C@H](CCCCN)NC(=O)[C@H](CC(C)C)NC(=O)[C@@H](NC(=O)CNC(=O)[C@@H]1CCCN1C(=O)[C@H](CC(C)C)NC(=O)[C@@H](N)Cc1ccccc1)[C@@H](C)CC)C(C)C)C(C)C)C(C)C)C(C)C)C(=O)O [OSa] (H-FLPGILKVAANVVPGVI-OH)
- MBC [1]: > 512 µM
- MBC [2]: > 512 µM
- MBC [3]: > 512 µM
- MBC [4]: > 512 µM
- MBC [5]: > 512 µM
- MBC [6]: > 512 µM
